# Test results: patent EP1892243A1, “Polymorphic forms of ziprasidone sulphate salts” (KRKA, tovarna zdravil, d.d., Novo mesto, priority 2006, dated 2008)
# Counter-ions that a name gives are not always drawn.
# Key:
# Water-sorption analysis = type: physicochemical; conditions: for release of crystal water: at 0 % RH, nitrogen flow 200 ml/min; for release of crystal water / water sorption started at: 25°C; for water sorption started at: cycles from 0 % RH to 95 % RH
# Description: An amount of 20 mg of zipasidone hydrogensulphate dihydrate was exposed to a water-sorption analysis (Surface Measurement Systems Ltd., London, UK; two complete 11-step circles from 0 % RH to 95 % RH at the temperature 25°C and nitrogen flow rate 200 ml/min; minimal retention time at the step when dm/dt < 0.002% is 10 minutes and maximal 360 minutes) and compared to the same test of Ziprasidone hydrochloride monohydrate.
# [1] = 2 weeks
# [2] = Particle size by laser light scattering; type: physicochemical; conditions: drug substance used in the compositions of Example 12
# Description: The average particle size is determined by laser light scattering using a Malvern-Mastersizer Apparatus MS 2000. The particles to be subjected to the particle size measurement are first suspended in isoparafinic oil (Isopar®) and then subjected to a size determination in a Malvern Mastersizer MS 2000 instrument. Usually, 100-800 mg of substance is dispersed in 5-8 ml of […]. According to manufacturer's information, the Malvern Mastersizers allow for a measurement of particle size distributions in the range of 20 nm to 2000 µm, with a precision of better than 0.5%. Particle sizes are determined by measuring the angular distribution of laser light scattered by a homogeneous suspension of particles. The size distribution is determined from the light scattering data using the theory of light scattering developed by Gustav Mie.
Structure (SMILES),release of crystal water (Water-sorption analysis),water sorption started at (Water-sorption analysis) [% RH],HPLC purity of Ziprasidone after two-week stability test [1] [%],Particle size [2] [µm],stability to hydratation (Water-sorption analysis; compared with Ziprasidone hydrochloride salt)
"O=C1Cc2cc(CCN3CCN(c4nsc5ccccc45)CC3)c(Cl)cc2N1 [Ziprasidone hydrochloride monohydrate, reference compound]",release crystal water,30,,,
"O.O.O=C1Cc2cc(CCN3CCN(c4nsc5ccccc45)CC3)c(Cl)cc2N1.O=S(=O)(O)O [Ziprasidone hydrogensulphate dihydrate, 5-[2-[4-(1,2-benzisothiazol-3-yl)-1-piperazinyl]ethyl]-6-chloro-1,3-dihydro-2H-indol-2-one hydrogensulphate dihydrate]",does not release crystal water,50,99.7,26,more stable to hydratation
